We go through three compounds from US11208412B2 (DAEGU-GYEONGBUK MEDICAL INNOVATION FOUNDATION, priority 2017, dated 2021).

Assay in all cases: Kinase selectivity, DiscoverX scanMAX Kinase assay panel (% control)
What all share (assay type): binding

The target in assay [1] is T1, kinases of the scanMAX Kinase assay panel (Homo sapiens, UniProt O14733).
T1 construct: purchased DiscoverX Co. (contract measurement) scanMAX Kinase assay panel
T1 sequence (O14733 1-419): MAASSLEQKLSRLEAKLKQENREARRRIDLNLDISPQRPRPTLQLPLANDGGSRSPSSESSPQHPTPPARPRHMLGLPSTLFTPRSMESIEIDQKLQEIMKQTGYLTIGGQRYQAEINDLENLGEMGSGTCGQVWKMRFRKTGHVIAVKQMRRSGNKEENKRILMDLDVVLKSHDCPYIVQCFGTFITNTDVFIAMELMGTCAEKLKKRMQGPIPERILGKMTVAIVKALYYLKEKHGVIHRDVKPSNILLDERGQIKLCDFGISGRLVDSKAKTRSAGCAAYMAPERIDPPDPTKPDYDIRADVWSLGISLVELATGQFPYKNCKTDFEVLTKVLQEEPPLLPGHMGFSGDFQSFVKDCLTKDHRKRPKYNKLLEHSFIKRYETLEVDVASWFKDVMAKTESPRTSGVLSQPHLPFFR
Particulars: MKK7; 1 uM. The essentials: (§1)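 Compounds tested at 1 uM against the scanMAX kinase panel. Signal expressed as % control = (compound − positive control)/(DMSO negative control − positive control) × 100, where positive control = 0% and DMSO = 100%; below 35% counted as activity on that kinase.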

Assay [2] has as its target T2, kinases of the scanMAX Kinase assay panel (Homo sapiens, UniProt P07333).
T2 construct: purchased DiscoverX Co. (contract measurement) scanMAX Kinase assay panel
The note with it: 1 uM. The procedure, abridged: as §1

For assay [3], the target named is T3, kinases of the scanMAX Kinase assay panel (Homo sapiens, UniProt Q00536).
T3 construct: purchased DiscoverX Co. (contract measurement) scanMAX Kinase assay panel
Particulars: PCTK1; 1 uM. The procedure, abridged: as §1

Assay [4] addresses T4, kinases of the scanMAX Kinase assay panel (Homo sapiens, UniProt Q02156).
T4 construct: purchased DiscoverX Co. (contract measurement) scanMAX Kinase assay panel
T4 sequence (Q02156 1-737): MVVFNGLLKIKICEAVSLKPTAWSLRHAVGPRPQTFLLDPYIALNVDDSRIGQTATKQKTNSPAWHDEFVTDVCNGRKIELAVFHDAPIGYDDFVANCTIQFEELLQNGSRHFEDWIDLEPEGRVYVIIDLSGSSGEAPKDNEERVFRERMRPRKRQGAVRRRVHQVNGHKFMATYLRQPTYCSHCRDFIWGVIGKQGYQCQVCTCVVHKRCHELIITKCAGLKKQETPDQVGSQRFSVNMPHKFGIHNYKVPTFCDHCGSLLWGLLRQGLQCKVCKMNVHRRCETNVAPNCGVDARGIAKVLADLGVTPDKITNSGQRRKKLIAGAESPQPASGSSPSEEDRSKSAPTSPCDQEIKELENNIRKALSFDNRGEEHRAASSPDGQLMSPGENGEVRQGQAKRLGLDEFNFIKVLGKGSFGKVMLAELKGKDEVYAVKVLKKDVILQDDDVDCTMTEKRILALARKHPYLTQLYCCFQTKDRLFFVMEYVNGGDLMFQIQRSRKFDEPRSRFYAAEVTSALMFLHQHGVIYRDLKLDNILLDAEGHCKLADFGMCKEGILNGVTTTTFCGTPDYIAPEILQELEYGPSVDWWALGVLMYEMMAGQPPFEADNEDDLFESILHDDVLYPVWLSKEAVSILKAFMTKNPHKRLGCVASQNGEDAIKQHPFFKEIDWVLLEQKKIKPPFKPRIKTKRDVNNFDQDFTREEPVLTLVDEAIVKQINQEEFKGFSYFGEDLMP
The note with it: PRKCE; 1 uM. The procedure, abridged:
as §1

Assay [5] has as its target T5, kinases of the scanMAX Kinase assay panel (Homo sapiens, UniProt Q13164).
T5 construct: purchased DiscoverX Co. (contract measurement) scanMAX Kinase assay panel
Particulars: ERK5; 1 uM. The essentials: as §1

Assay [6] concerns the target T6, kinases of the scanMAX Kinase assay panel (Homo sapiens, UniProt Q13557).
T6 construct: purchased DiscoverX Co. (contract measurement) scanMAX Kinase assay panel
Particulars: CAMK2D; 1 uM. The essentials:
as §1

For assay [7], the target named is T7, kinases of the scanMAX Kinase assay panel (Homo sapiens, UniProt Q15208).
T7 construct: purchased DiscoverX Co. (contract measurement) scanMAX Kinase assay panel
The note with it: NDR1; 1 uM. The essentials: as §1

Assay [8] deals with T8, kinases of the scanMAX Kinase assay panel (Homo sapiens, UniProt Q16816).
T8 construct: purchased DiscoverX Co. (contract measurement) scanMAX Kinase assay panel
Particulars: PHKG1; 1 uM. The essentials:
as §1

The target in assay [9] is T9, kinases of the scanMAX Kinase assay panel (Homo sapiens, UniProt Q8IU85).
T9 construct: purchased DiscoverX Co. (contract measurement) scanMAX Kinase assay panel
The note with it: CAMK1D; 1 uM. The essentials: as §1

For assay [10], the target named is T10, kinases of the scanMAX Kinase assay panel (Homo sapiens, UniProt Q9UQB9).
T10 construct: purchased DiscoverX Co. (contract measurement) scanMAX Kinase assay panel
T10 sequence (Q9UQB9 1-309): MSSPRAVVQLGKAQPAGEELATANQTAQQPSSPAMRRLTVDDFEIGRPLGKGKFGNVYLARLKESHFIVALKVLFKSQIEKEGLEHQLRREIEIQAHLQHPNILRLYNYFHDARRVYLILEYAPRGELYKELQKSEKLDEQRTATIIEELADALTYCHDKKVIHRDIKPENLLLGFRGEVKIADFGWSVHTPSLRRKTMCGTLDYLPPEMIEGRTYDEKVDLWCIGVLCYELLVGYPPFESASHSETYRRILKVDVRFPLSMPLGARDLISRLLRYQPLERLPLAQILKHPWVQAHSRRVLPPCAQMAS
The note with it: AURKC; 1 uM. The essentials:
as §1

Assay [11] concerns the target T11, kinases of the scanMAX Kinase assay panel (Plasmodium falciparum, UniProt P62344).
T11 construct: purchased DiscoverX Co. (contract measurement) scanMAX Kinase assay panel
Particulars: PFCDPK1(P. falciparum); 1 uM. The essentials: as §1

T9 sequence (Q8IU85 whole entry): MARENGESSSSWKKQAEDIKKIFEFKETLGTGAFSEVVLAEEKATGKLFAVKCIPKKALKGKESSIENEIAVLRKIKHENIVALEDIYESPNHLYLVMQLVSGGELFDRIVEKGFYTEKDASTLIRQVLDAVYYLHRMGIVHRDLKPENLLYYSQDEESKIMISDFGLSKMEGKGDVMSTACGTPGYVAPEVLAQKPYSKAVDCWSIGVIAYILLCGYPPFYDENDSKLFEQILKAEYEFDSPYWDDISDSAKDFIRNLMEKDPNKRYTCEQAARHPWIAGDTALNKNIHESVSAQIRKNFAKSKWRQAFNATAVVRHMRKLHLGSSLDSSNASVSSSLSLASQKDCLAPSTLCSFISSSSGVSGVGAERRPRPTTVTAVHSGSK
T5 sequence (Q13164 whole entry): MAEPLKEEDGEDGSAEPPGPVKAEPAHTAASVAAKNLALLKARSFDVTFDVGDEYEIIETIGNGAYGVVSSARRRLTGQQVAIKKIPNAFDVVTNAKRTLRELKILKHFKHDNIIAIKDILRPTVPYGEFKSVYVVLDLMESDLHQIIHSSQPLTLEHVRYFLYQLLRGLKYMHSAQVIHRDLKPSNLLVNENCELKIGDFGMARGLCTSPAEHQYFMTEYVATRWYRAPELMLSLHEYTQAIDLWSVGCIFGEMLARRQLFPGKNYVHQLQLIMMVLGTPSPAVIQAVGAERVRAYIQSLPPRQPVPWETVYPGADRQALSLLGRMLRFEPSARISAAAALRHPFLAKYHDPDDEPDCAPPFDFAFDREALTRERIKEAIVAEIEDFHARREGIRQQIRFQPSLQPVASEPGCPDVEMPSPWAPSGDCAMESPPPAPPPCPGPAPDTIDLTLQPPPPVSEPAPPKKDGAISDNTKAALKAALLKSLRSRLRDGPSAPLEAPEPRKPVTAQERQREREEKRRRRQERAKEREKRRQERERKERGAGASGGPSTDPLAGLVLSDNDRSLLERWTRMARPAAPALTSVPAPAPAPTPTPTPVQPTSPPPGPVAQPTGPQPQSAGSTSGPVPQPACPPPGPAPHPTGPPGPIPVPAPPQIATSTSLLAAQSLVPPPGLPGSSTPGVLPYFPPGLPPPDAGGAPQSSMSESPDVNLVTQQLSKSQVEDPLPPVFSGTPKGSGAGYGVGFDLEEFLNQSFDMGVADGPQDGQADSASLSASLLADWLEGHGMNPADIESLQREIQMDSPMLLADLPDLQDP
T6 sequence (Q13557 whole entry): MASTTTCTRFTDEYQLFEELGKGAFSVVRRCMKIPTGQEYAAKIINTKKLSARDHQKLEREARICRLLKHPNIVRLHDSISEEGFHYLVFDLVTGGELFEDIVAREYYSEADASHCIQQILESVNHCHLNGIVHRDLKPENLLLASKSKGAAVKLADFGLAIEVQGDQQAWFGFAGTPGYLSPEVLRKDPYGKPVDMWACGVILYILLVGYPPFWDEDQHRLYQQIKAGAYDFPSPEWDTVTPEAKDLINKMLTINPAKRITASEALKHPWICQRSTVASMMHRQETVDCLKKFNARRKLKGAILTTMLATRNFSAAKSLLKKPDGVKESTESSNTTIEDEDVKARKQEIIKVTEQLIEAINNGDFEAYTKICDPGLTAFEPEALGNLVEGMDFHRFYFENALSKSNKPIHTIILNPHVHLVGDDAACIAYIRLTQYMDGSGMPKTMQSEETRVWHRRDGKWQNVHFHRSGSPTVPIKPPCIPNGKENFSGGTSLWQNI
T7 sequence (Q15208 whole entry): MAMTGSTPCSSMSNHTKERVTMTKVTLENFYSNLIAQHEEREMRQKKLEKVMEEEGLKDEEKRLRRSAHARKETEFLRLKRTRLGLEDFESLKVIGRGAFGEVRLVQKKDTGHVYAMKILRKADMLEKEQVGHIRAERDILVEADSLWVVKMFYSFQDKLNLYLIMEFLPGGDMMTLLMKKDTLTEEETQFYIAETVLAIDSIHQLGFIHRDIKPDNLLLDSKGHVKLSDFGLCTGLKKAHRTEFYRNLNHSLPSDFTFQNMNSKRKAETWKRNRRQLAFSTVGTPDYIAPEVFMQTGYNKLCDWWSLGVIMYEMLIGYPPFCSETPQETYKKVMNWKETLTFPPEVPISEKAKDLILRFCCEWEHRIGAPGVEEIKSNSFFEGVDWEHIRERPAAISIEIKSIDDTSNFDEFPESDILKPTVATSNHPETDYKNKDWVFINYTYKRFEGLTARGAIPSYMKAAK
T2 sequence (P07333 20-972): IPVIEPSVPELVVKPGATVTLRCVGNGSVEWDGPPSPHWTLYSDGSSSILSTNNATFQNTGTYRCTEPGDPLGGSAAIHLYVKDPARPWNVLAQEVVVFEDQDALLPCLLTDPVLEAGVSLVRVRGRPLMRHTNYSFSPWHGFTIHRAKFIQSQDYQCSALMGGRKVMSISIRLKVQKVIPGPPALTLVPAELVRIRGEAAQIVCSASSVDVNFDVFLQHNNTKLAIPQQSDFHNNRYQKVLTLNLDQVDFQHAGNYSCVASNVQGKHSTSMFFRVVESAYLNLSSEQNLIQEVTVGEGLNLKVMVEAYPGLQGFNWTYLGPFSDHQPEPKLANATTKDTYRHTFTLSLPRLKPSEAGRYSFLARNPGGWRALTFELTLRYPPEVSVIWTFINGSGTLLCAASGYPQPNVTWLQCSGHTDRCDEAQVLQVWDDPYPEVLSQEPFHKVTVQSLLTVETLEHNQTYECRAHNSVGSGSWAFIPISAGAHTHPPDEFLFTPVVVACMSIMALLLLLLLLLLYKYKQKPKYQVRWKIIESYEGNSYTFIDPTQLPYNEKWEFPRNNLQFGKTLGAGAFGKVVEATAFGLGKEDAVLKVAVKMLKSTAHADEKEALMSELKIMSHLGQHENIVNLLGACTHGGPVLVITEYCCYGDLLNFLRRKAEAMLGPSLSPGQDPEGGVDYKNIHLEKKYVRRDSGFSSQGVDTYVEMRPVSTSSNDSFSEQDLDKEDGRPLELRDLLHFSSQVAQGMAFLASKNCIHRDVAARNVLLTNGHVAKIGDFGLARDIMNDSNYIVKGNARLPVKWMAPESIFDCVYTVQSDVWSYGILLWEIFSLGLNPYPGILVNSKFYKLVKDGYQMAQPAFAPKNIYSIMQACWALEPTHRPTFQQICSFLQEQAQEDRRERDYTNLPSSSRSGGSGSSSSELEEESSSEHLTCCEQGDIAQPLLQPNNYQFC
T8 sequence (Q16816 whole entry): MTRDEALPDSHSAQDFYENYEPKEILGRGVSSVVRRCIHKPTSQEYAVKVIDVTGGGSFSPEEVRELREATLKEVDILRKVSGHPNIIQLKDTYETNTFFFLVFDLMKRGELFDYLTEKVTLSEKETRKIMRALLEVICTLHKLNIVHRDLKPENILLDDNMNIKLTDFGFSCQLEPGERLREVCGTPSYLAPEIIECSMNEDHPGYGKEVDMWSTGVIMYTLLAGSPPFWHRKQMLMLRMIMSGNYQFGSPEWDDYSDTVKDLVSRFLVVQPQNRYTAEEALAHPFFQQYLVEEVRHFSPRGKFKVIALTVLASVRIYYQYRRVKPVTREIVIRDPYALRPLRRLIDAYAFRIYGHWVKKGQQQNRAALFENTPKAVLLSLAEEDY
T11 sequence (P62344 whole entry): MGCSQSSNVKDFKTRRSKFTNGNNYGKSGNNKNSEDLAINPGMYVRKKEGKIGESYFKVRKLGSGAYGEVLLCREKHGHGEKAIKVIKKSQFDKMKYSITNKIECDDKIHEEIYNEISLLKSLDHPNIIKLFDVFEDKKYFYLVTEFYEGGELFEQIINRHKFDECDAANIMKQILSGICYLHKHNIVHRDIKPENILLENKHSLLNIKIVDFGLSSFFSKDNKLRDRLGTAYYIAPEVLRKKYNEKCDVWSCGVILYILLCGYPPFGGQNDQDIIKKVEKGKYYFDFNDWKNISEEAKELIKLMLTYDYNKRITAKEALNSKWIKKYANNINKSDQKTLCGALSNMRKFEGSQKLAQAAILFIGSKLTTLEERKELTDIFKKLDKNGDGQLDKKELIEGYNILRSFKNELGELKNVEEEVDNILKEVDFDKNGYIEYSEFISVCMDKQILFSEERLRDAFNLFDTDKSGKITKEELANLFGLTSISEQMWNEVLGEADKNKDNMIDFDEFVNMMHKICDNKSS
T3 sequence (Q00536 whole entry): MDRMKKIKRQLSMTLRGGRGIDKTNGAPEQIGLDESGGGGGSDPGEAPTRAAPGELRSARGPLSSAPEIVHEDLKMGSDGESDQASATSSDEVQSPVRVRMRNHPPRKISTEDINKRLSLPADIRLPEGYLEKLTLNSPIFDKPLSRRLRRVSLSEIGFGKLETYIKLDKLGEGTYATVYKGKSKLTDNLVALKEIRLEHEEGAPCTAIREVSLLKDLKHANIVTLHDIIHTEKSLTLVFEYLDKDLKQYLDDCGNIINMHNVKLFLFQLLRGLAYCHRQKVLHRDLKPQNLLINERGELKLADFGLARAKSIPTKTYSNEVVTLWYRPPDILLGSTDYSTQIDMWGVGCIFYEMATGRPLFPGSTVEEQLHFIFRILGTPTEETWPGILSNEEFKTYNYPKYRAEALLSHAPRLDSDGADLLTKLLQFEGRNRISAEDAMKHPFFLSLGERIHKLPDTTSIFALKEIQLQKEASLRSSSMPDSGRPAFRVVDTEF

`CC1(Nc2nc(Nc3cnn([C@H]4CCN(C5COC5)C[C@@H]4F)c3Cl)nc3[nH]cc(C#N)c23)CC1` [Example 52, 2-((5-chloro-1-((3S,4S)-3-fluoro-1-(oxetane-3-yl)piperidine-4-yl)-1H-pyrazole-4-yl)amino)((1-methylcyclopropyl)amino)-7H-pyrrolo[2,3-d]pyrimidine-5-carbonitrile]: the remaining binding at 1 µM is 6.1% in [1]; 0% in assay [2] (CSF1R-autoinhibited); 0% in [2] (CSF1R); 100% in [3]; 100% in [4]; 13% in [5]. Also, the remaining binding at 1 µM in [6] was found to be 65%; in [7], 42%; in [8] it was 11%; in assay [9], 14%; in assay [10], 7.1%; in assay [11], 52%.

`CCNc1nc(Nc2ccc(C(=O)N3CCC(N4CCOCC4)CC3)cc2OC)nc2[nH]cc(C(F)(F)F)c12` [Example 104, (4-((4-(ethylamino)-5-(trifluoromethyl)-7H-pyrrolo[2,3-d]pyrimidine-2-yl)amino)-3-methoxyphenyl)(4-morpholinopiperidine-1-yl)methanone]: the remaining binding at 1 µM in assay [1] was 100%; in assay [2] (CSF1R-autoinhibited) it was 100%; in assay [2] (CSF1R), 88%; in [3] it was 100%; in assay [4], 100%; in assay [5], 18%. The remaining binding at 1 µM was 66% in assay [6]; 94% in [7]; 1% in assay [8]; 66% in [9]; 100% in [10]; 100% in assay [11].

As to `CNc1nc(Nc2ccc(C(=O)N3CCOCC3)cc2OC)nc2[nH]cc(C#N)c12` [Example 1, 2-((2-methoxy-4-(morpholine-4-carbonyl)phenyl)amino)-4-(methylamino)-7H-pyrrolo[2,3-d]pyrimidine-5-carbonitrile], the remaining binding at 1 µM was determined as 48% in assay [1]; 46% in [2] (CSF1R-autoinhibited); 89% in [2] (CSF1R); 77% in [3]; 100% in [4]; 72% in assay [5]. In addition, the remaining binding at 1 µM in assay [6] is 82%; in assay [7] it was 84%; in assay [8] it was 13%; in assay [9] it was 50%; in assay [10], 100%; in assay [11] it was 87%.
